From patent US11931424B2, “Combination MCL-1 inhibitors with anti-body drug conjugates” (Gilead Sciences, Inc., priority 2021, dated 2024)

System: HCC1187 (TNBC)
Test: Compound A + SN-38 cell viability combination assay (Cell Titer Glo, Bliss synergy)
Format: cell-based
Settings: HCC1187, 1st Replicate (n = 5), 72 hours; SN-38 0.0000 μM; Compound A μM = c0 of the row
Excerpt: Cells were passaged according to ATCC guidelines with 0.25% Trypsin/EDTA (1× GIBCO-25200).
Calculated values were compared to experimental results generated in the sixty-three-concentration checkerboard. Synergy or antagonism scores were generated depending on whether the observed growth inhibition was greater than or less than the calculated values, respectively.
Data for combination assays is presented in three formats.

## COc1nn(C)cc1C(=O)N[S@@]1(=O)=NC(=O)c2ccc3c(c2)N(C[C@@H]2CC[C@H]2[C@@H](OC)/C=C/C[C@H](C)C1)C[C@@]1(CCCc2cc(Cl)ccc21)CO3 [Compound A, N-[(4S,7aR,9aR,10S,11E,14S)-6′-chloro-10-methoxy-14-methyl-16-oxido-18-oxo-3′,4′,7,7a,8,9,9a,10,13,14,15,18-dodecahydro-2′H-spiro[1,19-(ethanediylidene)-16λ^4-cyclobuta[i][1,4]oxazepino[3,4-f][1,2,7]thiadiazacyclohexadecine-4,1′-naphthalen]-16-yl]-3-methoxy-1-methyl-1H-pyrazole-4-carboxamide]
  Percent Inhibition: 99.2%
